Measurements as given in PubChem BioAssay AID256 (DTP/NCI, 2004).
Several values for one entry are separate records, joined by “and”; a condition that tells them apart may be missing. Equal entries are not always repeated. Inconclusive results and toxic doses are left out. Rule for the calls: active = survival T/C of 150% or more; inactive = T/C below 125% in these data.

System: CD2F1 mice, L1210 leukemia ip, survival T/C
Assay: NCI In Vivo Anticancer Drug Screen. Data for tumor model L1210 Leukemia (intraperitoneal) in CD2F1 (CDF1) mice
Conditions: higher = longer survival
Description: The antitumor activity of compounds was measured in mice bearing transplantable tumors. Survival or tumor size were measured and the results are expressed as the measurement made in the treated group (T) divided by the measurement made in the vehicle treated control group (C). The tumor model used in this assay is L1210 Leukemia (intraperitoneal) in CD2F1 (CDF1) mice

[1] = endpoint: mean survival time, dose: 100.0 mg/kg/injection, schedule: Q01DX009 (ip), vehicle: saline with Tween-80
[2] = endpoint: mean survival time, dose: 200.0 mg/kg/injection, schedule: Q01DX009 (ip), vehicle: saline with Tween-80
[3] = endpoint: mean survival time, dose: 400.0 mg/kg/injection, schedule: Q01DX009 (ip), vehicle: saline with Tween-80
[4] = endpoint: mean survival time, dose: 100.0 mg/kg/injection, schedule: Q04DX003 (ip), vehicle: saline with Tween-80
[5] = endpoint: mean survival time, dose: 200.0 mg/kg/injection, schedule: Q04DX003 (ip), vehicle: saline with Tween-80
[6] = endpoint: mean survival time, dose: 400.0 mg/kg/injection, schedule: Q04DX003 (ip), vehicle: saline with Tween-80
[7] = endpoint: mean survival time, dose: 100.0 mg/kg/injection, schedule: Q04DX003 (ip), vehicle: Klucel (hydroxypropylcellulose) (HPC)
[8] = endpoint: mean survival time, dose: 200.0 mg/kg/injection, schedule: Q04DX003 (ip), vehicle: Klucel (hydroxypropylcellulose) (HPC)
[9] = endpoint: mean survival time, dose: 400.0 mg/kg/injection, schedule: Q04DX003 (ip), vehicle: Klucel (hydroxypropylcellulose) (HPC)
[10] = endpoint: mean survival time, dose: 100.0 mg/kg/injection, schedule: Q04DX002 (ip), vehicle: saline with Tween-80
[11] = endpoint: mean survival time, dose: 200.0 mg/kg/injection, schedule: Q04DX002 (ip), vehicle: saline with Tween-80
[12] = endpoint: mean survival time, dose: 400.0 mg/kg/injection, schedule: Q04DX002 (ip), vehicle: saline with Tween-80
[13] = endpoint: mean survival time, dose: 100.0 mg/kg/injection, schedule: Q01DX001 (ip), vehicle: Klucel (hydroxypropylcellulose) (HPC)
[14] = endpoint: mean survival time, dose: 200.0 mg/kg/injection, schedule: Q01DX001 (ip), vehicle: Klucel (hydroxypropylcellulose) (HPC)
[15] = endpoint: mean survival time, dose: 400.0 mg/kg/injection, schedule: Q01DX001 (ip), vehicle: Klucel (hydroxypropylcellulose) (HPC)

Measured: T/C

COc1ccc(C(O)(c2ccc(OC)cc2)C(c2ccccc2)c2ccccc2)cc1
inactive: [1] 100 % of control | [2] 96 % of control | [3] 97 % of control

CCCCc1ccc(N=Cc2ccc(C=Nc3ccc(CCCC)cc3)cc2)cc1
inactive: [4] 94 % of control | [5] 89 % of control | [6] 89 % of control

O=P(O)(O)OCC1OC(n2cnc3c(NCc4ccccc4)ncnc32)C(O)C1O (stereo not given)
inactive: endpoint: mean survival time, dose: 12.5 mg/kg/injection, schedule: Q01DX005 (ip), vehicle: other 104 % of control | endpoint: mean survival time, dose: 25.0 mg/kg/injection, schedule: Q01DX005 (ip), vehicle: other 100 % of control | endpoint: mean survival time, dose: 50.0 mg/kg/injection, schedule: Q01DX005 (ip), vehicle: other 104 % of control | endpoint: mean survival time, dose: 100.0 mg/kg/injection, schedule: Q01DX005 (ip), vehicle: other 117 % of control

COc1ccc(CNCCO)cc1
inactive: endpoint: mean survival time, dose: 50.0 mg/kg/injection, schedule: Q01DX009 (ip), vehicle: saline with Tween-80 96 % of control | [1] 102 % of control | [2] 98 % of control

CC1(C)C2C3C=CC(C3)C2S1(=O)=O (stereo not given)
inactive: endpoint: mean survival time, dose: 1.25 mg/kg/injection, schedule: Q01DX009 (ip), vehicle: saline with Tween-80 100 % of control | endpoint: mean survival time, dose: 1.25 mg/kg/injection, schedule: Q04DX003 (ip), vehicle: saline with Tween-80 110 % of control | endpoint: mean survival time, dose: 2.5 mg/kg/injection, schedule: Q01DX001 (ip), vehicle: saline 100 % of control | endpoint: mean survival time, dose: 2.5 mg/kg/injection, schedule: Q01DX009 (ip), vehicle: saline with Tween-80 101 % of control | endpoint: mean survival time, dose: 2.5 mg/kg/injection, schedule: Q04DX003 (ip), vehicle: saline with Tween-80 100 % of control | endpoint: mean survival time, dose: 5.0 mg/kg/injection, schedule: Q01DX001 (ip), vehicle: saline 100 % of control | endpoint: mean survival time, dose: 5.0 mg/kg/injection, schedule: Q01DX009 (ip), vehicle: saline with Tween-80 101 % of control | endpoint: mean survival time, dose: 5.0 mg/kg/injection, schedule: Q04DX003 (ip), vehicle: saline with Tween-80 107 % of control

O=P(Nc1ccccc1)(Oc1c(F)c(F)c(F)c(F)c1F)N(CCCl)CCCl (stereo not given)
inactive: endpoint: mean survival time, dose: 62.5 mg/kg/injection, schedule: Q01DX001 (ip), vehicle: other 87 % of control | endpoint: mean survival time, dose: 125.0 mg/kg/injection, schedule: Q01DX001 (ip), vehicle: other 107 % of control | endpoint: mean survival time, dose: 250.0 mg/kg/injection, schedule: Q01DX001 (ip), vehicle: other 96 % of control | endpoint: mean survival time, dose: 500.0 mg/kg/injection, schedule: Q01DX001 (ip), vehicle: other 96 % of control

CC(=O)N(C(C)=O)c1ccc2[nH]c3c(N(C(C)=O)C(C)=O)cccc3c2c1
inactive: [7] 97 % of control | [8] 96 % of control | [9] 97 % of control

COc1ccc(-c2c3nc(c(-c4ccc(OC)cc4)c4ccc([nH]4)c(-c4ccc(OC)cc4)c4nc(c(-c5ccc(OC)cc5)c5ccc2[nH]5)C=C4)C=C3)cc1
inactive: [7] 93 % of control | [8] 101 % of control | [9] 89 % of control

COc1cc(/C=C/C(C)=N/Nc2ccc([N+](=O)[O-])cc2[N+](=O)[O-])ccc1O
inactive: [4] 95 % of control | [5] 94 % of control | [6] 95 % of control

Cc1ccc(OCc2c(COc3ccc(Cl)cc3)sc3ccc(Cl)cc23)cc1
inactive: [4] 96 % of control | [6] 88 % of control

CN(C)C1CCCCC1[N+](C)(C)C (stereo not given)
inactive: endpoint: mean survival time, dose: 5.0 mg/kg/injection, schedule: Q01DX009 (ip), vehicle: saline 101 % of control | endpoint: mean survival time, dose: 5.0 mg/kg/injection, schedule: Q04DX003 (ip), vehicle: saline 104 % of control | endpoint: mean survival time, dose: 10.0 mg/kg/injection, schedule: Q01DX009 (ip), vehicle: saline 107 % of control | endpoint: mean survival time, dose: 10.0 mg/kg/injection, schedule: Q04DX003 (ip), vehicle: saline 101 % of control | endpoint: mean survival time, dose: 20.0 mg/kg/injection, schedule: Q01DX009 (ip), vehicle: saline 104 % of control | endpoint: mean survival time, dose: 20.0 mg/kg/injection, schedule: Q04DX003 (ip), vehicle: saline 98 % of control

COc1ccc(C(C#N)C(CC(=O)c2ccccc2)c2ccccc2)cc1 (stereo not given)
inactive: [10] 98 % of control | [11] 91 % of control | [12] 87 % of control

O=C1CC(=O)NC(=O)N1
inactive: [1] 102 % of control | [2] 97 % of control | [3] 96 % of control

O=C(NNC(=O)OCC(Cl)(Cl)Cl)OCC(Cl)(Cl)Cl
inactive: [4] 102 % of control

CCOC(=O)C1=C2CC(C)(C)CCC2(C)CCC1=O (stereo not given)
inactive: [10] 100 % of control | [11] 100 % of control | [12] 88 % of control

O=C1NC(=O)C2(CCN(Cc3ccccc3)CC2)N1
inactive: endpoint: mean survival time, dose: 100.0 mg/kg/injection, schedule: Q01DX001 (ip), vehicle: saline with Tween-80 104 % of control | endpoint: mean survival time, dose: 200.0 mg/kg/injection, schedule: Q01DX001 (ip), vehicle: saline with Tween-80 101 % of control | endpoint: mean survival time, dose: 400.0 mg/kg/injection, schedule: Q01DX001 (ip), vehicle: saline with Tween-80 101 % of control

Clc1ccc(N=Cc2ccc3c(c2)OCO3)c(Cl)c1
inactive: [13] 100 % of control | [14] 96 % of control | [15] 97 % of control

CC1C(N2CCCCC2)CS1(=O)=O (stereo not given)
inactive: endpoint: mean survival time, dose: 25.0 mg/kg/injection, schedule: Q04DX002 (ip), vehicle: saline 104 % of control | endpoint: mean survival time, dose: 50.0 mg/kg/injection, schedule: Q04DX002 (ip), vehicle: saline 101 % of control | endpoint: mean survival time, dose: 100.0 mg/kg/injection, schedule: Q04DX002 (ip), vehicle: saline 108 % of control

Oc1ccccc1N=Cc1ccccc1
inactive: endpoint: mean survival time, dose: 100.0 mg/kg/injection, schedule: Q04DX003 (ip), vehicle: saline 102 % of control | endpoint: mean survival time, dose: 200.0 mg/kg/injection, schedule: Q04DX003 (ip), vehicle: saline 100 % of control | endpoint: mean survival time, dose: 400.0 mg/kg/injection, schedule: Q04DX003 (ip), vehicle: saline 101 % of control

Cc1c(C)c2ccccc2[nH]c1=O
inactive: [4] 99 % of control | [5] 96 % of control | [6] 100 % of control

CN(C)c1ccc(/C=N\O)c2c1CCC2
inactive: [4] 102 % of control | [5] 102 % of control | [6] 100 % of control

CC1=C(N)C(=O)c2c(COC(N)=O)c3n(c2C1=O)C[C@H]1N[C@@H]31
inactive: endpoint: mean survival time, dose: 3.0 mg/kg/injection, schedule: Q01DX001 (ip), vehicle: distilled water + Tween-80 105 % of control | endpoint: mean survival time, dose: 6.0 mg/kg/injection, schedule: Q01DX001 (ip), vehicle: distilled water + Tween-80 100 % of control | endpoint: mean survival time, dose: 12.0 mg/kg/injection, schedule: Q01DX001 (ip), vehicle: distilled water + Tween-80 100 % of control | endpoint: mean survival time, dose: 24.0 mg/kg/injection, schedule: Q01DX001 (ip), vehicle: distilled water + Tween-80 100 % of control | endpoint: mean survival time, dose: 48.0 mg/kg/injection, schedule: Q01DX001 (ip), vehicle: distilled water + Tween-80 94 % of control

O=C(Nc1nccs1)C(F)(F)F
inactive: endpoint: median survival time, dose: 50.0 mg/kg/injection, schedule: Q01DX009 (ip), vehicle: saline 100 % of control | endpoint: median survival time, dose: 100.0 mg/kg/injection, schedule: Q01DX009 (ip), vehicle: saline 108 % of control | endpoint: median survival time, dose: 200.0 mg/kg/injection, schedule: Q01DX009 (ip), vehicle: saline 108 % of control | endpoint: median survival time, dose: 400.0 mg/kg/injection, schedule: Q01DX009 (ip), vehicle: saline 109 % of control

OC(C=C(C(F)(F)F)C(F)(F)F)c1ccccc1Cl (stereo not given)
inactive: endpoint: mean survival time, dose: 50.0 mg/kg/injection, schedule: Q04DX003 (ip), vehicle: saline with Tween-80 102 % of control | [4] 107 % of control | [5] 111 % of control

O=S1(=O)Cc2ccc(Br)cc2C1
inactive: [1] 103 % of control | [4] 90 % of control | [2] 101 % of control | [5] 91 % of control | [3] 97 % of control | [6] 90 % of control

Cc1c(Cl)cccc1NC(=O)Nc1cccc2ccccc12
inactive: [1] 113 % of control | [4] 93 % of control | [2] 102 % of control | [5] 102 % of control | [3] 96 % of control | [6] 100 % of control

C=CS(=O)(=O)CCCC
inactive: [13] 96 % of control | [14] 96 % of control | [15] 101 % of control

N=P(N[P+](N)(c1ccccc1)c1ccccc1)(c1ccccc1)c1ccccc1
inactive: endpoint: mean survival time, dose: 1.56 mg/kg/injection, schedule: Q01DX009 (ip), vehicle: Klucel (hydroxypropylcellulose) (HPC) 103 % of control | endpoint: mean survival time, dose: 3.12 mg/kg/injection, schedule: Q01DX009 (ip), vehicle: Klucel (hydroxypropylcellulose) (HPC) 103 % of control | endpoint: mean survival time, dose: 6.25 mg/kg/injection, schedule: Q01DX009 (ip), vehicle: Klucel (hydroxypropylcellulose) (HPC) 91 % of control and 103 % of control
